Source: patent US11725037B2, “Peptide dual agonists of GIPR and GLP2R” (University of Copenhagen, priority 2017, dated 2023)
Peptide text beside a SMILES is read from it. * marks the point of attachment. Palmitoyl = CCCCCCCCCCCCCCCC(=O)*

Key:
human GIP receptor = molecular target: T1, human GIP receptor (Homo sapiens, UniProt P48546); experiment: cAMP accumulation assay (HitHunter cAMP XS) in transiently transfected COS-7 cells expressing the human GIP receptor; type: cell-based; conditions: for Emax at 10 µM: COS-7, read-out: Emax (10 μM), GIP receptor; for fold (fold change of native GIP), GIP receptor: EC50 relative to native GIP; for EC50: cAMP, COS-7
T1 construct: host or cells: COS-7 (transient, calcium phosphate; pCMV-Script vector)
T1 sequence (P48546 22-466): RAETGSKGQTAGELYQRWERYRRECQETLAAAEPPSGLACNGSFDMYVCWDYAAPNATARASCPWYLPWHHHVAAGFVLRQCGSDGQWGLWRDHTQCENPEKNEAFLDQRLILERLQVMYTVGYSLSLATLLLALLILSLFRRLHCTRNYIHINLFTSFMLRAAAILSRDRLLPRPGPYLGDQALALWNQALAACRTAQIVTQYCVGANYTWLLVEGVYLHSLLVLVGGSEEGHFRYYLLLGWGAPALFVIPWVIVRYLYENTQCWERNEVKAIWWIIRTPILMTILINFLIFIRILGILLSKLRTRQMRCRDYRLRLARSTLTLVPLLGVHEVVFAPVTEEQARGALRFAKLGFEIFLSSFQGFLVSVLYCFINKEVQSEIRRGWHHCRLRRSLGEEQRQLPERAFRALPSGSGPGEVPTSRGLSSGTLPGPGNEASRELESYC
Method: (§1) The day after, the cells were washed twice with Hepes buffered saline (HBS) buffer and incubated with HBS and 1 mM 3-isobutyl-1-methylxanthine (IBMX) for 30 min at 37° C. Ligands were added and incubated for 30 min at 37° C. The HitHunter™ cAMP XS assay (DiscoveRx) was carried out according to the manufacturer's instructions.

human GLP-2 receptor = molecular target: T2, human GLP-2 receptor (Homo sapiens, UniProt O95838); experiment: cAMP accumulation assay (HitHunter cAMP XS) in transiently transfected COS-7 cells expressing the human GLP-2 receptor; type: cell-based; conditions: for Emax at 10 µM: COS-7, read-out: Emax (10 μM), GLP-2 receptor; for fold (fold change of native GLP-2), GLP-2 receptor: EC50 relative to native GLP-2; for EC50: logEC50, GLP-2 receptor, cAMP, COS-7
T2 construct: host or cells: COS-7 (transient, calcium phosphate; pCMV-Script vector)
T2 sequence (O95838 1-553): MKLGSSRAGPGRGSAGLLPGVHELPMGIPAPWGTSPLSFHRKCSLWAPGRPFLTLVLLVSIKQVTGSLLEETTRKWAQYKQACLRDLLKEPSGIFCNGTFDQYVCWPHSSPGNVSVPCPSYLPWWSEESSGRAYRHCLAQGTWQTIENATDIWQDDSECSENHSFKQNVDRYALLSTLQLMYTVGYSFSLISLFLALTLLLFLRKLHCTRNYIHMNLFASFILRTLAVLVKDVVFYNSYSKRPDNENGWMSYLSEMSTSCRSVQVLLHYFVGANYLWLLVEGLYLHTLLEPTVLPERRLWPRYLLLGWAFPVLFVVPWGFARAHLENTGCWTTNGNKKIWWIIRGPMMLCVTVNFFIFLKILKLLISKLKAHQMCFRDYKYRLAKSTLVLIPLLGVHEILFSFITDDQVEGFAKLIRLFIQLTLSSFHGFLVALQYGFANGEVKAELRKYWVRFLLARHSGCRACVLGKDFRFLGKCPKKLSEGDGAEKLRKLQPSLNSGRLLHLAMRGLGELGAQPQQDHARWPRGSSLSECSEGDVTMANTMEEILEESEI
Method: as §1

[1] = logEC50, GIP receptor, Table 2, log value

CC[C@H](C)[C@H](NC(=O)[C@H](Cc1ccccc1)NC(=O)[C@H](CC(=O)O)NC(=O)[C@H](CCCNC(=N)N)NC(=O)[C@H](C)NC(=O)[C@H](C)NC(=O)[C@H](CC(C)C)NC(=O)[C@H](CC(N)=O)NC(=O)[C@H](CC(=O)O)NC(=O)[C@H](CC(C)C)NC(=O)[C@@H](NC(=O)[C@@H](NC(=O)[C@H](CO)NC(=O)[C@H](Cc1ccc(O)cc1)NC(=O)[C@H](CC(=O)O)NC(=O)[C@H](CO)NC(=O)[C@@H](NC(=O)[C@H](Cc1ccccc1)NC(=O)[C@@H](NC(=O)CNC(=O)[C@H](CC(=O)O)NC(=O)[C@H](C)NC(=O)[C@@H](N)Cc1c[nH]cn1)[C@@H](C)O)[C@@H](C)CC)[C@@H](C)O)[C@@H](C)CC)C(=O)N[C@@H](CC(N)=O)C(=O)N[C@@H](Cc1c[nH]c2ccccc12)C(=O)N[C@@H](CC(C)C)C(=O)N[C@H](C(=O)N[C@@H](CCC(N)=O)C(=O)N[C@H](C(=O)N[C@@H](CCCCN)C(=O)N[C@H](C(=O)N[C@H](C(=O)N[C@@H](CCCCN)C(=O)O)[C@@H](C)O)[C@@H](C)CC)[C@@H](C)O)[C@@H](C)CC [Co-agonist 18]
Emax at 10 µM (human GIP receptor): 89%
potency (and efficacy) on the GIP receptor compared with native GIP, in words (human GIP receptor; Table 1): almost the same potency and efficacy
fold (fold change of native GIP), GIP receptor (human GIP receptor; Table 1): 7.4 fold
Emax at 10 µM (human GLP-2 receptor): 94%
potency and efficacy on the GLP-2R compared with native GLP-2, in words (human GLP-2 receptor; Table 1): almost the same potency and efficacy
fold (fold change of native GLP-2), GLP-2 receptor (human GLP-2 receptor; Table 1): 4.4 fold

CCCCCCCCCCCCCCCC(=O)NCCCC[C@H](NC(=O)[C@H](C)NC(=O)[C@H](C)NC(=O)[C@H](CC(C)C)NC(=O)[C@H](CC(N)=O)NC(=O)[C@H](CC(=O)O)NC(=O)[C@H](CC(C)C)NC(=O)[C@@H](NC(=O)[C@@H](NC(=O)[C@H](CO)NC(=O)[C@H](Cc1ccc(O)cc1)NC(=O)[C@H](CC(=O)O)NC(=O)[C@H](CO)NC(=O)[C@H](CO)NC(=O)[C@H](Cc1ccccc1)NC(=O)[C@@H](NC(=O)CNC(=O)[C@H](CC(=O)O)NC(=O)[C@H](C)NC(=O)[C@@H](N)Cc1c[nH]cn1)[C@@H](C)O)[C@@H](C)O)[C@@H](C)CC)C(=O)N[C@@H](CC(=O)O)C(=O)N[C@@H](Cc1ccccc1)C(=O)N[C@H](C(=O)N[C@@H](CC(N)=O)C(=O)N[C@@H](Cc1c[nH]c2ccccc12)C(=O)N[C@@H](CC(C)C)C(=O)N[C@H](C(=O)N[C@@H](CCC(N)=O)C(=O)N[C@H](C(=O)N[C@@H](CCCCN)C(=O)N[C@H](C(=O)N[C@H](C(=O)N[C@@H](CC(=O)O)C(=O)O)[C@@H](C)O)[C@@H](C)CC)[C@@H](C)O)[C@@H](C)CC)[C@@H](C)CC [Co-agonist 21] (H-HADGTFSSDYSTILDNLAAK(Palmitoyl)DFINWLIQTKITD-OH; N-terminus and C-terminus assumed)
Emax at 10 µM (human GIP receptor): 94%
fold (fold change of native GIP), GIP receptor (human GIP receptor; Table 2): 381 fold
EC50 (human GIP receptor; [1]): 33.9 nM
Emax at 10 µM (human GLP-2 receptor): 75%
fold (fold change of native GLP-2), GLP-2 receptor (human GLP-2 receptor; Table 2): 5.0 fold

CCCCCCCCCCCCCCCC(=O)N[C@@H](Cc1c[nH]cn1)C(=O)N[C@@H](C)C(=O)N[C@@H](CC(=O)O)C(=O)NCC(=O)N[C@H](C(=O)N[C@@H](Cc1ccccc1)C(=O)N[C@@H](CO)C(=O)N[C@@H](CO)C(=O)N[C@@H](CC(=O)O)C(=O)N[C@@H](Cc1ccc(O)cc1)C(=O)N[C@@H](CO)C(=O)N[C@H](C(=O)N[C@H](C(=O)N[C@@H](CC(C)C)C(=O)N[C@@H](CC(=O)O)C(=O)N[C@@H](CC(N)=O)C(=O)N[C@@H](CC(C)C)C(=O)N[C@@H](C)C(=O)N[C@@H](C)C(=O)N[C@@H](CCCNC(=N)N)C(=O)N[C@@H](CC(=O)O)C(=O)N[C@@H](Cc1ccccc1)C(=O)N[C@H](C(=O)N[C@@H](CC(N)=O)C(=O)N[C@@H](Cc1c[nH]c2ccccc12)C(=O)N[C@@H](CC(C)C)C(=O)N[C@H](C(=O)N[C@@H](CCC(N)=O)C(=O)N[C@H](C(=O)N[C@@H](CCCCN)C(=O)N[C@H](C(=O)N[C@H](C(=O)N[C@@H](CC(=O)O)C(=O)O)[C@@H](C)O)[C@@H](C)CC)[C@@H](C)O)[C@@H](C)CC)[C@@H](C)CC)[C@@H](C)CC)[C@@H](C)O)[C@@H](C)O [Co-agonist 22] (Palmitoyl-HADGTFSSDYSTILDNLAARDFINWLIQTKITD-OH)
Emax at 10 µM (human GIP receptor): 100%
EC50 (human GIP receptor; [1]): 0.407 nM
Emax at 10 µM (human GLP-2 receptor): 72%
EC50 (human GLP-2 receptor; Table 2): 1.32 nM

CCCCCCCCCCCCCCCC(=O)NCCCC[C@H](NC(=O)[C@@H](NC(=O)[C@H](CCC(N)=O)NC(=O)[C@@H](NC(=O)[C@H](CC(C)C)NC(=O)[C@H](Cc1c[nH]c2ccccc12)NC(=O)[C@H](CC(N)=O)NC(=O)[C@@H](NC(=O)[C@H](Cc1ccccc1)NC(=O)[C@H](CC(=O)O)NC(=O)[C@H](CCCNC(=N)N)NC(=O)[C@H](C)NC(=O)[C@H](C)NC(=O)[C@H](CC(C)C)NC(=O)[C@H](CC(N)=O)NC(=O)[C@H](CC(=O)O)NC(=O)[C@H](CC(C)C)NC(=O)[C@@H](NC(=O)[C@@H](NC(=O)[C@H](CO)NC(=O)[C@H](Cc1ccc(O)cc1)NC(=O)[C@H](CC(=O)O)NC(=O)[C@H](CO)NC(=O)[C@H](CO)NC(=O)[C@H](Cc1ccccc1)NC(=O)[C@@H](NC(=O)CNC(=O)[C@H](CC(=O)O)NC(=O)[C@H](C)NC(=O)[C@@H](N)Cc1c[nH]cn1)[C@@H](C)O)[C@@H](C)O)[C@@H](C)CC)[C@@H](C)CC)[C@@H](C)CC)[C@@H](C)O)C(=O)N[C@H](C(=O)N[C@H](C(=O)N[C@@H](CC(=O)O)C(=O)O)[C@@H](C)O)[C@@H](C)CC [Co-agonist 23] (H-HADGTFSSDYSTILDNLAARDFINWLIQTK(Palmitoyl)ITD-OH; N-terminus and C-terminus assumed)
Emax at 10 µM (human GIP receptor): 81%
fold (fold change of native GIP), GIP receptor (human GIP receptor; Table 2): 8.5 fold
Emax at 10 µM (human GLP-2 receptor): 57%
fold (fold change of native GLP-2), GLP-2 receptor (human GLP-2 receptor; Table 2): 1.2 fold
EC50 (human GLP-2 receptor; Table 2): 1.41 nM

CC[C@H](C)[C@H](NC(=O)[C@H](Cc1ccccc1)NC(=O)[C@H](CC(=O)O)NC(=O)[C@H](CCCCN)NC(=O)[C@H](C)NC(=O)[C@H](C)NC(=O)[C@H](CC(C)C)NC(=O)[C@H](CC(N)=O)NC(=O)[C@H](CC(=O)O)NC(=O)[C@H](CC(C)C)NC(=O)[C@@H](NC(=O)[C@@H](NC(=O)[C@H](CO)NC(=O)[C@H](Cc1ccc(O)cc1)NC(=O)[C@H](CC(=O)O)NC(=O)[C@H](CO)NC(=O)[C@@H](NC(=O)[C@H](Cc1ccccc1)NC(=O)[C@@H](NC(=O)CNC(=O)[C@H](CC(=O)O)NC(=O)[C@H](C)NC(=O)[C@@H](N)Cc1c[nH]cn1)[C@@H](C)O)[C@@H](C)CC)[C@@H](C)O)[C@@H](C)CC)C(=O)N[C@@H](CC(N)=O)C(=O)N[C@@H](Cc1c[nH]c2ccccc12)C(=O)N[C@@H](CC(C)C)C(=O)N[C@H](C(=O)N[C@@H](CCC(N)=O)C(=O)N[C@H](C(=O)N[C@@H](CCCCN)C(=O)N[C@H](C(=O)N[C@H](C(=O)N[C@@H](CCCCN)C(=O)O)[C@@H](C)O)[C@@H](C)CC)[C@@H](C)O)[C@@H](C)CC [Co-agonist 28]
Emax at 10 µM (human GIP receptor): 100%
EC50 (human GIP receptor; [1]): 0.2 nM
Emax at 10 µM (human GLP-2 receptor): 112%

CCCCCCCCCCCCCCCC(=O)N[C@@H](Cc1c[nH]cn1)C(=O)N[C@@H](C)C(=O)N[C@@H](CC(=O)O)C(=O)NCC(=O)N[C@H](C(=O)N[C@@H](Cc1ccccc1)C(=O)N[C@H](C(=O)N[C@@H](CO)C(=O)N[C@@H](CC(=O)O)C(=O)N[C@@H](Cc1ccc(O)cc1)C(=O)N[C@@H](CO)C(=O)N[C@H](C(=O)N[C@H](C(=O)N[C@@H](CC(C)C)C(=O)N[C@@H](CC(=O)O)C(=O)N[C@@H](CC(N)=O)C(=O)N[C@@H](CC(C)C)C(=O)N[C@@H](C)C(=O)N[C@@H](C)C(=O)N[C@@H](CCCNC(=N)N)C(=O)N[C@@H](CC(=O)O)C(=O)N[C@@H](Cc1ccccc1)C(=O)N[C@H](C(=O)N[C@@H](CC(N)=O)C(=O)N[C@@H](Cc1c[nH]c2ccccc12)C(=O)N[C@@H](CC(C)C)C(=O)N[C@H](C(=O)N[C@@H](CCC(N)=O)C(=O)N[C@H](C(=O)N[C@@H](CCCCN)C(=O)N[C@H](C(=O)N[C@H](C(=O)N[C@@H](CCCCN)C(=O)O)[C@@H](C)O)[C@@H](C)CC)[C@@H](C)O)[C@@H](C)CC)[C@@H](C)CC)[C@@H](C)CC)[C@@H](C)O)[C@@H](C)CC)[C@@H](C)O [Co-agonist 29]
Emax at 10 µM (human GIP receptor): 115%
EC50 (human GIP receptor; EC50(nM), GIP receptor, Table 2): 1.82 nM
EC50 (human GIP receptor; [1]): 1.82 nM
Emax at 10 µM (human GLP-2 receptor): 82%
EC50 (human GLP-2 receptor; Table 2): 17.4 nM
